Earlier results, collected in paper PMC3836577 (Microbial Biotechnology, 2010).
Ends that are not written are not given here.

Test system: S. aureus Sa113
Settings: literature value for comparison; ref Peschel et al., 2001

nisin (ITSISLCTPGCKTGALMGCNMKTATCHCSIHVSK; also: lantibiotic thioether rings and dehydrated residues not placed; UniProt P13068 24-57, looked up)
Activity against Sa113 (MIC): 14 µM
